Measurements taken from article PMC8496750, “Identification of the organic anion transporting polypeptides responsible for the hepatic uptake of the major metabolite of epyrifenacil, S‐3100‐CA, in mice” (Pharmacology Research & Perspectives, 2021).

Assays:
mouse Oatp1a1 = biological target: T1, mouse Oatp1a1 (Mus musculus, UniProt Q9QXZ6); assay: Uptake assay for radiolabeled substrates, mouse Oatp1a1 expressing 293FT cells; assay type: in vitro ADME; design: expressed in transfected cells; host or cells: 293FT cells; settings: for Ratio of uptake amount relative to the uptake into mock cells: 10‐min incubation
T1 sequence (Q9QXZ6 1-670): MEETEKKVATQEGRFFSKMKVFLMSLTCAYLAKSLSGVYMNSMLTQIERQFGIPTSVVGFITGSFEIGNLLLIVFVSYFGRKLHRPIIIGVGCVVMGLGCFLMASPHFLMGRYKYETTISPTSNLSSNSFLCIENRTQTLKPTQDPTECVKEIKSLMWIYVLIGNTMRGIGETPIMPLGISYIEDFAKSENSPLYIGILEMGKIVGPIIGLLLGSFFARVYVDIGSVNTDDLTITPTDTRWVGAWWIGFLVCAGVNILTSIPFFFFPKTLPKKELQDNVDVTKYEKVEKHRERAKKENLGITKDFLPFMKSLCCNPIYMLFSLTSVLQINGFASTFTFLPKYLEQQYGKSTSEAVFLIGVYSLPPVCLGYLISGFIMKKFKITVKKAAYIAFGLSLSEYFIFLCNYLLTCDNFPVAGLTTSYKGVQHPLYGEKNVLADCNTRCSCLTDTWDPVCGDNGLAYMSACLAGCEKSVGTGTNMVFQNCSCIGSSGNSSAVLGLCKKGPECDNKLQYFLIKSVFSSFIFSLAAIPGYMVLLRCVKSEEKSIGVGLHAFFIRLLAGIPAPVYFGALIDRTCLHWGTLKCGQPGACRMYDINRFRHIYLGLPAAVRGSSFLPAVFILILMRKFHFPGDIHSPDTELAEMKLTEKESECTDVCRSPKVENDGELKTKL
Experimental: (§1) 293FT cells were purchased from Thermo Fisher Scientific, Inc.. The cells were grown in Dulbecco's modified Eagle medium (supplemented with 4.5 g/L glucose and 2 mM L‐glutamine) at 37°C, 5% CO2, and 95% humidity. The cells were passaged 3 times per week by harvesting cells using trypsin and plating at a density of 1.0 × 10^4 cells/cm^2 in a 10 cm cell culture plate for maintenance culture. The 293FT cells were detached using trypsin and re‐seeded at a density of 2.5 × 10^4 cells/cm^2 in BioCoat™ Collagen I 6‐well plates (Corning Inc.) for transfection and then treated with 1.2 μg of plasmid vector and 3.2 μl of Lipofectamine™ 2000 Transfection Reagent (Thermo Fisher Scientific, Inc.) according to the manufacturer's instructions. After a 3‐h treatment, the transfection medium was replaced with a fresh cell culture medium and incubated at 37°C with 95% humidity and 5% CO2 until ready for the assay.
(§2) Transport experiments were conducted approximately 24 h post‐transfection. The experiments were initiated by aspirating culture medium and addition of pre‐warmed radiolabeled substrate solution (final 1.0% of acetonitrile or 0.9% of ethanol in phosphate‐buffered saline (PBS[−])) to each well. After a 10‐min incubation, cells were washed twice with 1 ml of ice‐cold PBS(−) and lysed with 700 μl of 1.0 M NaOH for 3 h or more at room temperature. The lysate was transferred to a 1.5‐ml tube, and neutralized with 350 μl of 2.0 M HCl and 350 μl of 2.0% sodium dodecyl sulfate (SDS) solution. From the lysate, 1.0 ml was transferred to a vial containing 10 ml of Emulsifier Scintillator Plus to measure the radioactivity in the LSC. The protein concentration of the cell lysate was also measured using a Pierce™ BCA Protein Assay Kit (Thermo Fisher Scientific, Inc.), which was used to normalize, according to the cell number, the radioactivity in the cell lysate extract. The protein assay was performed in duplicate. Each sample type was assayed in triplicate wells, and each run was performed twice. When the difference in mean uptake between OATP expressing cells and mock cells was more than 2 times, the OATP was judged to be involved in transportation of the substrate. […] Each sample type was assayed in triplicate wells.

rat Oatp1a4 = biological target: T2, rat Oatp1a4 (Rattus norvegicus, UniProt O35913); assay: Uptake assay for radiolabeled substrates, rat Oatp1a4 expressing 293FT cells; settings: 10‐min incubation
T2 sequence (O35913 1-661): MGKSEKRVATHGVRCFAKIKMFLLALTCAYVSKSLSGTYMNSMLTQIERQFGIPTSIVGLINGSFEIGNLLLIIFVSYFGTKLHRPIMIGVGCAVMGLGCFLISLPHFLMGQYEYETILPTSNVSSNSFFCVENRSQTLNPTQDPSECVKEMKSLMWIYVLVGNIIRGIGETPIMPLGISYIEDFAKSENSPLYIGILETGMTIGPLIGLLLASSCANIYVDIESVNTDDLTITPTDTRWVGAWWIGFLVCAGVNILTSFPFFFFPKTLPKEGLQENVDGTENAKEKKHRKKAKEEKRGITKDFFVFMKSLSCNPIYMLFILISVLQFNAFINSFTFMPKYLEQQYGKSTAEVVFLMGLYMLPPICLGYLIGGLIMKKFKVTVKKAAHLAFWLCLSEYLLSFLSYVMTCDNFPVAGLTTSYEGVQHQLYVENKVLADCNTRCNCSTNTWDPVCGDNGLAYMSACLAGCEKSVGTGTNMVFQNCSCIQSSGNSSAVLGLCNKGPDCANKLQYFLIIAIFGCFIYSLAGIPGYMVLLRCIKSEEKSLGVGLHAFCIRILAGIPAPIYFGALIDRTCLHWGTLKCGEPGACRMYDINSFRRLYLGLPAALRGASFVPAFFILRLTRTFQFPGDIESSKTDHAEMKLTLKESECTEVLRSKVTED
Experimental: as §1, §2

mouse Oatp1a4 = biological target: T3, mouse Oatp1a4 (Mus musculus, UniProt Q9EP96); assay: Uptake assay for radiolabeled substrates, mouse Oatp1a4 expressing 293FT cells; settings: 10‐min incubation
T3 sequence (Q9EP96 1-670): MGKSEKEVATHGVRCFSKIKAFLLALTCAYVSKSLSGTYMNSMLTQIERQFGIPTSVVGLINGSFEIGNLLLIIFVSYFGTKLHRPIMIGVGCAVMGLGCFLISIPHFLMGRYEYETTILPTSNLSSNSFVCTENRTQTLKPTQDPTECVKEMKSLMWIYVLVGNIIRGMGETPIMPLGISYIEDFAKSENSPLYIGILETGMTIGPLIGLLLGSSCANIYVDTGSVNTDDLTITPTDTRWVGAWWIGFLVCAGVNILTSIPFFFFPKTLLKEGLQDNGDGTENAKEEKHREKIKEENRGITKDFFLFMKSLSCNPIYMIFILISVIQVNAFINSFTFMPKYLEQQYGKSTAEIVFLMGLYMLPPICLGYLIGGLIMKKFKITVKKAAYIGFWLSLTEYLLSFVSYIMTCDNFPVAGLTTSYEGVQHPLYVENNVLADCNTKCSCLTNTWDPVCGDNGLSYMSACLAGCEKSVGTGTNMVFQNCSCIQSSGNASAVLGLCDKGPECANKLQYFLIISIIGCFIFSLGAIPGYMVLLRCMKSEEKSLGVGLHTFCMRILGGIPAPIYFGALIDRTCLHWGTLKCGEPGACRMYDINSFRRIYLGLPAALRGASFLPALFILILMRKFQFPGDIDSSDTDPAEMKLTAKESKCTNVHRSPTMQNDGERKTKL
Experimental: as §1, §2

Row | Compound | Ratio of uptake amount relative to the uptake into mock cells (mouse Oatp1a1; Run_1) | Ratio of uptake amount relative to the uptake into mock cells (mouse Oatp1a1; Run_2) | Ratio of uptake amount relative to the uptake into mock cells (rat Oatp1a4; Run_1) | Ratio of uptake amount relative to the uptake into mock cells (rat Oatp1a4; Run_2) | Ratio of uptake amount relative to the uptake into mock cells (mouse Oatp1a4; Run_1) | Ratio of uptake amount relative to the uptake into mock cells (mouse Oatp1a4; Run_2) | Uptake, times higher than in mock cells (mouse Oatp1a1) [times]
1 | C[C@]12CC[C@@H]3c4ccc(OS(=O)(=O)O)cc4CC[C@H]3[C@@H]1CCC2=O [E3S, Estrone 3‐sulfate] | 23.4 | 34.4 | 2.2 | 1.4 | 1.1 | 1.1 | 
2 | C[C@]12CC[C@@H]3c4ccc(O)cc4CC[C@H]3[C@@H]1CC[C@@H]2O[C@@H]1O[C@H](C(=O)O)[C@@H](O)[C@H](O)[C@H]1O [E217βG, Estradiol 17β‐D‐glucuronide] | 84.9 | 62.2 | 6.1 | 10.4 | 3.7 | 3.3 | > 50
3 | Cn1c(C(F)(F)F)cc(=O)n(-c2cc(Oc3cccnc3OCC(=O)O)c(Cl)cc2F)c1=O [S‐3100‐CA] | 3.3 | 4.3 | 5.0 | 4.1 | 8.1 | 4.2 | 
